Measurements as given in patent US4046904A, “Novel penicillin, and its preparation and use” (Sumitomo Chemical Company, Limited, priority 1975, dated 1977).
In brackets after ≈: the same amount, converted by molar mass.

Experiments:
[1] = Serum level in mice after subcutaneous administration (Table 7); type: in vivo, ICR-SLC strain mice; conditions: mouse, sc, subcutaneous 50 mg/kg, sodium salt
Procedure: The peak serum concentrations of Compound (I) and Compound (C) in ICR strain mice following subcutaneous administration at 50 mg/kg are shown in Table 7.
Note: Compound (I) and Compound (C) were subjected to the test in the form of the sodium salt. For the test, three male ICR-SLC strain mice were used. The bioassay was carried out according to the disc method using Bacillus subtilis.

[2] = test system: Escherichia coli; test: MIC (Table 3); type: cell-based
Text: (§1) The minimum inhibitory concentrations obtained with Compound (I) and Compound (C) against the following organisms representing 6 genera are shown in Table 3.
(§2) Note: Compound (I) and Compound (C) were subjected to the test in the form of the sodium salt.

[3] = test system: Proteus vulgaris; test: MIC (Table 3); type: cell-based; conditions: Proteus vulgaris strain HX19; sodium salt
Text: as §1, §2

[4] = test system: Klebsiella pneumoniae; test: MIC (Table 3); type: cell-based; conditions: Klebsiella pneumoniae strain PCI602; sodium salt
Text: as §1, §2

[5] = test system: Staphylococcus aureus; test: MIC (Table 3); type: cell-based
Text: as §1, §2

[6] = test system: Pseudomonas aeruginosa; test: MIC (Table 3); type: cell-based; conditions: Pseudomonas aeruginosa strain 104; sodium salt
Text: as §1, §2

[7] = test system: Proteus mirabilis; test: MIC (Table 3); type: cell-based
Text: as §1, §2

[8] = Protein-binding rate in human serum (Table 6); type: in vitro ADME; conditions: for fraction unbound: human, serum, sodium salt
Text: The following data are related to the pharmacokinetic profiles of Compound (I) compared with Compound (C).
as §2

[9] = test system: Proteus morganii; test: Median MIC, clinical isolates, agar-plate dilution (Table 1); type: cell-based
Procedure: (§3) Note: Compound (I) and Compound (A) were subjected to the test in the form of the sodium salt. The minimum inhibitory concentration (MIC) was determined using the agar-plate dilution method recommended by Japan Society of Chemotherapy.

[10] = test system: Proteus vulgaris; test: as above; type: cell-based
Procedure: as §3

[11] = test system: Escherichia; test: as above; type: cell-based; conditions: read-out: Median minimum inhibitory concentration
Procedure: as §3

[12] = test system: Klebsiella pneumoniae; test: as above; type: cell-based
Procedure: as §3

[13] = test system: Staphylococcus aureus; test: as above; type: cell-based; conditions: 37 clinical isolates, sodium salt, read-out: Median minimum inhibitory concentration
Procedure: as §3

[14] = test system: Enterobacter aerogenes; test: as above; type: cell-based
Procedure: as §3

[15] = test system: Pseudomonas aeruginosa; test: as above; type: cell-based; conditions: 49 clinical isolates, sodium salt, read-out: Median minimum inhibitory concentration
Procedure: as §3

[16] = test system: Serratia; test: as above; type: cell-based
Procedure: as §3

[17] = pain when administered parenterally; type: in vivo; conditions: relative to said penicillins
[18] = Acute toxicity in mice, intraperitoneal (Table 9); conditions: mouse, in vivo, ip
Text: The acute toxicity of Compound (I) and Compound (C) in ICR strain mice when administered by intraperitoneal route are shown in Table 9.
as §2

[19] = solubility in pharmaceutical diluents; type: physicochemical; conditions: e.g. water; relative to said penicillins
[20] = Urinary excretion rate in rats after intramuscular administration (Table 8); type: in vivo, Wistar-HLA strain rats; conditions: rat, urine, im, 20 mg/kg, male rats, intramuscular 20 mg/kg, sodium salt
Procedure: The urinary excretion rates of Compound (I) and Compound (C) following an intramuscular administration of 20 mg/kg in male Wistar-HLA strain rats are shown in Table 8.
as §2

[21] = test system: Klebsiella pneumoniae; test: MIC, nutrient broth dilution (Table 5); type: cell-based; conditions: Klebsiella pneumoniae strain No. 1, sodium salt
Procedure: (§4) The relative activities of Compound (I) and Compound (C) against various intraperitioneal infections in mice evaluated by the minimum inhibitory concentrations and the means median protective doses (subcutaneously administered) are shown in Table 5.
(§5) Note: Compound (I) and Compound (C) were subjected to the test in the form of the sodium salt. For each test, five male ICR-SLC strain mice were used at each dose level. MIC was determined by the nutrient broth dilution method. In determination of PD50, subsutaneous treatment was carried out three times, i.e. 1, 3 and 5 hours after infection.

[22] = test system: Streptococcus faecalis; test: MIC, nutrient broth dilution (Table 5); type: cell-based; conditions: Enterococcus faecalis, Streptococcus faecalis strain F10, sodium salt
Procedure: as §4, §5

[23] = test system: Staphylococcus aureus; test: MIC, nutrient broth dilution (Table 5); type: cell-based; conditions: Staphylococcus aureus strain A24, sodium salt
Procedure: as §4, §5

[24] = test system: Pseudomonas aeruginosa; test: MIC, nutrient broth dilution (Table 5); type: cell-based; conditions: Pseudomonas aeruginosa strain TS, sodium salt
Procedure: as §4, §5

[25] = test system: Klebsiella pneumoniae; test: Intraperitoneal infection in mice, median protective dose (Table 5); type: in vivo
Procedure: as §4, §5

[26] = test system: Streptococcus faecalis; test: as above; type: in vivo
Procedure: as §4, §5

[27] = test system: Staphylococcus aureus; test: as above; type: in vivo
Procedure: as §4, §5

[28] = test system: Pseudomonas aeruginosa; test: as above; type: in vivo
Procedure: as §4, §5

CC1(C)S[C@@H]2[C@H](NC(=O)[C@H](NC(=O)c3ccnnc3O)c3ccc(O)cc3)C(=O)N2[C@H]1C(=O)O [Compound (I), 6-[D-2-(3-hydroxypyridazine-4-carbonamido)-2-(p-hydroxyphenyl)acetamido]penicillanic acid]
concentration at 0.5 h ([1]; 1/2 hr.): 35000 ng/mL
concentration at 0.25 h ([1]; 1/4 hr.): 69000 ng/mL
concentration at 1 h ([1]; 1 hr.): 14000 ng/mL
concentration at 2 h ([1]; 2 hr.): 3000 ng/mL
antibacterial activity relative to Compound (C) ([2]; Escherichia coli): inferior
MIC ([2]; Escherichia coli strain NIHJ, sodium salt): 6.25 µg/mL
MIC [3]: 0.025 µg/mL
MIC [4]: 12.5 µg/mL
antibacterial activity relative to Compound (C) ([5]; Staphylococcus aureus): superior
MIC ([5]; Staphylococcus aureus strain 209P, sodium salt): 0.39 µg/mL
MIC [6]: 1.56 µg/mL
antibacterial activity relative to Compound (C) ([7]; Proteus mirabilis): inferior
MIC ([7]; Proteus mirabilis strain GN2425, sodium salt): 6.25 µg/mL
protein-binding rate relative to Compound (C) ([8]; human serum): lower protein-binding rate
fraction unbound ([8]; Ultracentrifugation method): 0.4
fraction unbound ([8]; Ultrafiltration method): 0.42
MIC50 ([9]; Morganella morganii, 14 clinical isolates, sodium salt, read-out: Median minimum inhibitory concentration): 4.4 µg/mL
antibacterial activity relative to Compound (A) ([9]; clinical isolates): superior
MIC50 ([10]; 7 clinical isolates, sodium salt, read-out: Median minimum inhibitory concentration): 8.8 µg/mL
antibacterial activity relative to Compound (A) ([10]; clinical isolates): superior
MIC50 [11]: 12 µg/mL (≈ 24.6 µM)
MIC50 ([12]; 26 clinical isolates, sodium salt, read-out: Median minimum inhibitory concentration): 21 µg/mL
antibacterial activity relative to Compound (A) ([12]; clinical isolates): superior
MIC50 [13]: 13 µg/mL
MIC50 ([14]; Klebsiella aerogenes, 8 clinical isolates, sodium salt, read-out: Median minimum inhibitory concentration): 25 µg/mL
antibacterial activity relative to Compound (A) ([14]; clinical isolates): superior
MIC50 [15]: 10 µg/mL
MIC50 ([16]; 6 clinical isolates, sodium salt, read-out: Median minimum inhibitory concentration): 31 µg/mL
antibacterial activity relative to Compound (A) ([16]; clinical isolates): superior
pain when administered parenterally [17]: weaker pain
LD50 [18]: 7100 mg/kg
solubility in pharmaceutical diluents [19]: higher solubility
dose excreted at 6 h ([20]; 0-6 hr.): 54%
dose excreted at 24 h ([20]; 0-24 hr.): 55%
dose excreted at 24 h ([20]; 6-24 hr.): 1%
MIC [21]: 6.25 µg/mL
MIC [22]: 1.56 µg/mL
MIC [23]: 0.39 µg/mL
MIC [24]: 6.25 µg/mL
PD50 relative to Compound (C) ([25]; mice, subcutaneous): approximately equal
ED50 ([25]; sc, K. pneumoniae strain No. 1, male ICR-SLC mice, subcutaneous, 1, 3 and 5 hours after infection, sodium salt, read-out: PD50): 16 mg/kg
ED50 ([26]; Enterococcus faecalis, sc, S. faecalis strain F10, male ICR-SLC mice, subcutaneous, 1, 3 and 5 hours after infection, sodium salt, read-out: PD50): 1.1 mg/kg
PD50 relative to Compound (C) ([26]; Streptococcus faecalis, mice, subcutaneous): markedly superior
PD50 relative to Compound (C) ([27]; mice, subcutaneous): markedly superior
ED50 ([27]; sc, S. aureus strain A24, male ICR-SLC mice, subcutaneous, 1, 3 and 5 hours after infection, sodium salt, read-out: PD50): 2 mg/kg
PD50 relative to Compound (C) ([28]; mice, subcutaneous): inferior
ED50 ([28]; sc, P. aeruginosa strain TS, male ICR-SLC mice, subcutaneous, 1, 3 and 5 hours after infection, sodium salt, read-out: PD50): 22 mg/kg
